Several values for one entry are separate records, joined by “and”; a condition that tells them apart may be missing. Identical values can stand only once. Entries after “also recorded” stand apart in the source; their conditions may differ. Like-named read-outs stand apart in the source and are kept apart here.
Assays:
streptavidin (SAV) [1] = target: T1, streptavidin (SAV) (Streptomyces avidinii, UniProt P22629); test: Stopped-flow association kinetics of dye-labeled biotin probes binding to streptavidin (F(t), rF(t); Arrhenius plots/global fitting); design: kcal/mol (from Arrhenius slope) / Eon for BFl: unit not given here; settings: for halftime of association, F¯(t): probe 20 nM
T1 construct: purchased Sigma Aldrich (St. Louis, MO)
Experimental: These reactions were carried out in a buffered solution of 10 mM Tris-HCl, 100 mM KCl, 2.5 mM MgCl2 and 1 mM CaCl2 at pH 8 and only AV-BcO reactions included pH 9 and 10. […] The deglycosylation of AV (for comparative association reactions) was carried out using the provided standard protocol with endoglycosidase H [47], both with and without incubation of a denaturant solution (2% SDS and 1M 2-mercaptoethanol).
The reactions were collected with the SF instrument, described previously. […] The AC(t) and DC(t) data were baseline corrected before obtaining the signal ratio (Eq 4) as a function of time (ρt).
The constant AGain is the instrumental amplitude gain and was evaluated by solving ρ(t) using the known steady state anisotropy (rss) of the complexes which is equivalent to the r(t) at t = ∞; and H, obtained from the equivalent grating factor (G) for the filters and photo multiplier tubes in the SF. For the probes used in here G was 0.82 and H = (1-G)/(1+G) = 0.099. Knowing Again and H, the AC(t) and DC(t) signals can be solved for r(t) and F(t) (Eqs 4 and 5) and the normalized fluorescence, F¯(t) , and corrected fluorescence anisotropy, rF¯(t), were obtained when F¯(0) and rF¯(0) were scaled to 1 at t = 0.
The F¯(t) (Eq 6) is equivalent to (I||) + 2 (I⊥) and proportional to quantum yield (QYi), molar absorptivity (εi) and to the formation or disappearance of the emitting species Xi(t); and rF¯(t) including the steady state anisotropies (rss) of each fluorescent species (Eq 7).
The possible reaction models were discriminated by the squared residuals of the observed and calculated association traces of both fluorescence and anisotropy fluorescence signals, F¯(t) and rF¯(t) , respectively.

avidin (AV) = target: T2, avidin (AV) (Gallus gallus, UniProt P02701); test: Dissociation (displacement/replacement) of dye-labeled biotin complexes by unlabeled B7; format: binding; settings: AB1; probe 20 nM, AV 260 nM; unlabeled B7 2,000 nM; 20°C
T2 construct: purchased Calbiochem (La Jolla, CA)
Experimental: Biotin dissociation was determined using labelled biotin (BcO and BFl) displaced by unlabeled biotin using minimally occupied and fully occupied binding sites. In the minimally occupied measurements, SAV is prepared with less than one site on average occupied by labelled biotin (AB1), using 800 nM SAV and 40 nM of BcO or BFl. For saturated SAV-labelled biotin (AB4) complexes, equimolar binding sites and labelled ligand were prepared, 40 nM SAV and 40 nM of BcO or BFl. The AB1 complexes were challenged in displacement experiments with several concentrations of unlabeled B7 (1500 nM, 1750 nM, 2000 nM and 2500 nM) at 20 ± 0.1°C. […]
The rss measurements were collected using the Giblin-Parkhurst modification of the Wampler-Desa method as described previously. The fluorescence signal was detected in a model A-1010 Alphascan fluorimeter (Photon Technologies, Inc., Birmingham, NJ) equipped with an R928 PMT (Hamamatsu, Bridgewater, NJ). […] The fluorimeter G factor was determined using a film polarizer and analyzer with an excitation at 488 nm provided by a xenon arc lamp (model A1010, Photon Technologies Inc, Princeton, NJ). The dissociation reactions of dye-labeled B7 and protein complexes were monitored by fluorescence changes and were also collected in the fluorimeter described above. […]

streptavidin (SAV) [2] = target: T1, streptavidin (SAV); test: Steady-state anisotropy (rss), SAV complex; format: physicochemical
Experimental: The lifetimes (τ), steady state anisotropies (rss), time-resolved anisotropies (rt) and quantum yields (QY) of the complexes (at 20 ± 0.1°C and pH 8) were collected with a dye-labeled B7 probe concentration of 20–40 nM and 1040–2080 nM of either protein (AV or SAV) to ensure that only one binding site in the tetramer was filled with a ligand (AB1 filling model).
The rss measurements were collected using the Giblin-Parkhurst modification of the Wampler-Desa method as described previously. The fluorescence signal was detected in a model A-1010 Alphascan fluorimeter (Photon Technologies, Inc., Birmingham, NJ) equipped with an R928 PMT (Hamamatsu, Bridgewater, NJ). The excitation was provided by an Ar^+ ion laser (Coherent Innova 70–4 Argon, Santa Clara, CA) at 488 nm and 5–10 mW of power incident on the sample. A photoelastic modulator (PEM-80; HINDS International, Inc., Portland, OR) was placed between the laser source and the sample compartment with a retardation level of 1.22π, and the PEM stress axis orientated 45° with respect to the E vector of the laser beam. Two signals were acquired with the PEM alternating between “on” and “off” positions for 10 seconds and the data fitted to a least squared straight line to minimize noise. A minimum of six of these independent measurements were averaged to acquire the rss values. The fluorimeter G factor was determined using a film polarizer and analyzer with an excitation at 488 nm provided by a xenon arc lamp (model A1010, Photon Technologies Inc, Princeton, NJ). The dissociation reactions of dye-labeled B7 and protein complexes were monitored by fluorescence changes and were also collected in the fluorimeter described above.

[3] = SAV, average over the dye-labeled B7 probes, used for SAV-B7
[4] = SAV, average over the dye-labeled B7 probes, used for SAV-B7, listed as B

T1 sequence (P22629 25-183): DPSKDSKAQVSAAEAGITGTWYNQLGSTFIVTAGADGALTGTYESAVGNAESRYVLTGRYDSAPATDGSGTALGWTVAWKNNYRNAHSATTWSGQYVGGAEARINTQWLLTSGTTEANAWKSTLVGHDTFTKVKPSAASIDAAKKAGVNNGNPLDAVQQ
T2 sequence (P02701 25-152): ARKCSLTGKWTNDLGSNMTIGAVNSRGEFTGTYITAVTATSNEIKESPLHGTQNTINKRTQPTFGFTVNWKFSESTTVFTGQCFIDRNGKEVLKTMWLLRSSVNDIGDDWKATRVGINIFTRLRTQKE

O=C(O)CCCC[C@@H]1SC[C@@H]2NC(=O)N[C@@H]21 [B7, d-biotin]
Eaon + (-∆H°) (streptavidin (SAV) [1]; SAV-B): 30.9 ± 2.5 kcal/mol | ∆G°ǂ + (-∆G°) (streptavidin (SAV) [1]; SAV-B): 22.2 ± 1.0 kcal/mol | ∆S°ǂ + (-∆S°) (streptavidin (SAV) [1]; SAV-B): 27.7 ± 2.0 cal/mol°K | ΔE = Ea^Forward-Ea^Backward (streptavidin (SAV) [1]; SAV-B7, column 3 minus 4): -23.4 ± 4.0 kcal/mol | ΔG° ^ǂ, Forward -ΔG° ^ǂ, Backward (streptavidin (SAV) [1]; SAV-B7, column 3 minus 4): -19.6 ± 2.5 kcal/mol | ΔS° ^ǂ, Forward -ΔS° ^ǂ, Backward (streptavidin (SAV) [1]; SAV-B7, column 3 minus 4): -18.1 ± 4.5 cal/mol°K | fold slower than 10^9 M^-1s^-1 (diffusion limited) (streptavidin (SAV) [1]; SAV, 25°C): 13-400 X | ΔG^ǂ, Forward (streptavidin (SAV) [1]; [3]): 4.0 ± 0.6 kcal/mol and 4.0 kcal/mol | ΔS^ǂ, Forward (streptavidin (SAV) [1]; [3]): 6.7 ± 1.6 cal/°K·mol and 6.7 cal/°K·mol | Ea^Forward (streptavidin (SAV) [1]; [4]): 6.0 ± 1.0 kcal/mol | ΔS^ǂ, Forward (streptavidin (SAV) [1]; [4]): 6.7 ± 2.0 cal/°K·mol

O=C(CCCC[C@@H]1SC[C@@H]2NC(=O)N[C@@H]21)NCCNC(=O)c1ccc(-c2c3ccc(=O)cc-3oc3cc(O)ccc23)c(C(=O)O)c1 [BFl, Biotin-4-fluorescein]
koff displacement / koff replacement of AV complexes (avidin (AV)): could not detect neither displacement nor replacement; also recorded: could not be detected | kon binding to SAV, fold faster than binding to AV (streptavidin (SAV) [1]; 25°C): 4 X | Eon for BFl (streptavidin (SAV) [1]; Enthalpy block, SAV): 6.0 | kon by corrected fluorescence anisotropy rF(t) (streptavidin (SAV) [1]; SAV-BFl, 10 °C, 200 nM): 3.75e+07 ± 1.2e+06 M⁻¹ s⁻¹ | kon (streptavidin (SAV) [1]; SAV-BFl, 10 °C, 200 nM, read-out: kon by corrected fluorescence anisotropy rF(t)): 3.75e+07 M⁻¹ s⁻¹ | kon (streptavidin (SAV) [1]; SAV-BFl, 10 °C, 200 nM, read-out: kon by fluorescence change F(t)): 3.73e+07 M⁻¹ s⁻¹ | kon (streptavidin (SAV) [1]; SAV-BFl, 10 °C, read-out: kon, Average): 3.74e+07 M⁻¹ s⁻¹ | kon by corrected fluorescence anisotropy rF(t) (streptavidin (SAV) [1]; SAV-BFl, 15 °C, 200 nM): 4.5e+07 ± 1e+06 M⁻¹ s⁻¹ | kon (streptavidin (SAV) [1]; SAV-BFl, 15 °C, 200 nM, read-out: kon by corrected fluorescence anisotropy rF(t)): 4.5e+07 M⁻¹ s⁻¹ | kon (streptavidin (SAV) [1]; SAV-BFl, 15 °C, 200 nM, read-out: kon by fluorescence change F(t)): 4.48e+07 M⁻¹ s⁻¹ | kon by corrected fluorescence anisotropy rF(t) (streptavidin (SAV) [1]; SAV-BFl, 15 °C, 400 nM): 4.5e+07 ± 1.7e+06 M⁻¹ s⁻¹ | kon (streptavidin (SAV) [1]; SAV-BFl, 15 °C, 400 nM, read-out: kon by corrected fluorescence anisotropy rF(t)): 4.5e+07 M⁻¹ s⁻¹ | kon (streptavidin (SAV) [1]; SAV-BFl, 15 °C, 400 nM, read-out: kon by fluorescence change F(t)): 4.59e+07 M⁻¹ s⁻¹ | kon by corrected fluorescence anisotropy rF(t) (streptavidin (SAV) [1]; SAV-BFl, 15 °C, 800 nM): 4.38e+07 ± 1.9e+06 M⁻¹ s⁻¹ | kon (streptavidin (SAV) [1]; SAV-BFl, 15 °C, 800 nM, read-out: kon by corrected fluorescence anisotropy rF(t)): 4.38e+07 M⁻¹ s⁻¹ | kon (streptavidin (SAV) [1]; SAV-BFl, 15 °C, 800 nM, read-out: kon by fluorescence change F(t)): 4.2e+07 M⁻¹ s⁻¹ | kon (streptavidin (SAV) [1]; SAV-BFl, 15 °C, read-out: kon, Average): 4.44e+07 M⁻¹ s⁻¹ | kon by corrected fluorescence anisotropy rF(t) (streptavidin (SAV) [1]; SAV-BFl, 20 °C, 200 nM): 6.25e+07 ± 1.6e+06 M⁻¹ s⁻¹ | kon (streptavidin (SAV) [1]; SAV-BFl, 20 °C, 200 nM, read-out: kon by corrected fluorescence anisotropy rF(t)): 6.25e+07 M⁻¹ s⁻¹ | kon (streptavidin (SAV) [1]; SAV-BFl, 20 °C, 200 nM, read-out: kon by fluorescence change F(t)): 6.23e+07 M⁻¹ s⁻¹ | kon (streptavidin (SAV) [1]; SAV-BFl, 20 °C, read-out: kon, Average): 6.24e+07 M⁻¹ s⁻¹ | kon by corrected fluorescence anisotropy rF(t) (streptavidin (SAV) [1]; SAV-BFl, 25 °C, 200 nM): 7.4e+07 ± 2e+06 M⁻¹ s⁻¹ | kon (streptavidin (SAV) [1]; SAV-BFl, 25 °C, 200 nM, read-out: kon by corrected fluorescence anisotropy rF(t)): 7.4e+07 M⁻¹ s⁻¹ | kon (streptavidin (SAV) [1]; SAV-BFl, 25 °C, 200 nM, read-out: kon by fluorescence change F(t)): 7.54e+07 M⁻¹ s⁻¹ | kon (streptavidin (SAV) [1]; SAV-BFl, 25 °C, read-out: kon, Average): 7.47e+07 M⁻¹ s⁻¹ | kon (streptavidin (SAV) [1]; SAV, 4°C, calculated by an Arrhenius plot, read-out: kon): 2.6e+07 M⁻¹ s⁻¹ | ln(k) (streptavidin (SAV) [1]; SAV, 10 (283.15 K)): 17.6 | k(average) (streptavidin (SAV) [1]; SAV, 10 (283.15 K), k (full value)): 4.55E+07 | k(average) (streptavidin (SAV) [1]; SAV, 10 (283.15 K), k (scaled)): 45.5 | ln(k) (streptavidin (SAV) [1]; SAV, 15 (288.15 K)): 17.8 | k(average) (streptavidin (SAV) [1]; SAV, 15 (288.15 K), k (full value)): 5.31E+07 | k(average) (streptavidin (SAV) [1]; SAV, 15 (288.15 K), k (scaled)): 53.1 | ln(k) (streptavidin (SAV) [1]; SAV, 20 (293.15 K)): 17.9 | k(average) (streptavidin (SAV) [1]; SAV, 20 (293.15 K), k (scaled)): 58.6 | ln(k) (streptavidin (SAV) [1]; SAV, 25 (298.15 K)): 18.1 | k(average) (streptavidin (SAV) [1]; SAV, 25 (298.15 K), k (full value)): 7.47E+07 | k(average) (streptavidin (SAV) [1]; SAV, 25 (298.15 K), k (scaled)): 74.7 | kon (streptavidin (SAV) [1]; SAV, 25°C and pH 8): 7.5 ± 0.2 x 10^7 M^-1s^-1 | Ea^Forward (streptavidin (SAV) [1]; SAV, pH 8): 5.3 ± 0.3 kcal/mol | ΔG^ǂ (streptavidin (SAV) [1]; SAV, pH 8, forward): 3.3 ± 0.6 kcal/mol | ΔS^ǂ (streptavidin (SAV) [1]; SAV, pH 8, forward): 6.6 ± 0.5 cal/°K·mol | kcal/mol (from Arrhenius slope) (streptavidin (SAV) [1]; SAV, ph8): -8101 | slope (Arrhenius linear fit) (streptavidin (SAV) [1]; SAV, ph8): -4076.8 | kon (streptavidin (SAV) [1]; pH 8, SAV, 25°C and pH 8): ~7.5e+07 M⁻¹ s⁻¹ | kon (streptavidin (SAV) [1]; pH 8, SAV, pH 8, 10°C, read-out: kon): 4.54e+07 ± 1e+06 M⁻¹ s⁻¹ | kon (streptavidin (SAV) [1]; pH 8, SAV, pH 8, 15°C, read-out: kon): 5.31e+07 ± 2e+06 M⁻¹ s⁻¹ | kon (streptavidin (SAV) [1]; pH 8, SAV, pH 8, 20°C, read-out: kon): 5.86e+07 ± 1.6e+06 M⁻¹ s⁻¹ | kon (streptavidin (SAV) [1]; pH 8, SAV, pH 8, 25°C, read-out: kon): 7.47e+07 ± 2e+06 M⁻¹ s⁻¹ | halftime of association, F¯(t) (streptavidin (SAV) [1]; SAV 200 nM, pH 8, 20°C): 77.3 ms | halftime of association, F¯(t) (streptavidin (SAV) [1]; SAV 400 nM, pH 8, 20°C): 37.7 ms | halftime of association, F¯(t) (streptavidin (SAV) [1]; SAV 800 nM, pH 8, 20°C): 20.6 ms | Steady State Anisotropy rss (streptavidin (SAV) [2]; SAV complex (AB1), 20°C): 0.171 ± 0.008 | SAV-increment (%) (streptavidin (SAV) [2]; increase of rss against unbound): 714.3% | rss, + SAV (streptavidin (SAV) [2]; steady-state anisotropy): 0.171

From publication PMC6394990, “Detailed characterization of the solution kinetics and thermodynamics of biotin, biocytin and HABA binding to avidin and streptavidin” (PLoS ONE, 2019)
